Measured values reported in US20100028259A1, “USE OF ORGANIC CATION TRANSPORTERS FOR CANCER DIAGNOSIS AND THERAPY” (The Regents of the University of California, priority 2006, published 2010).
Where two headings read alike, the source gives them in different places.

Experiments:
[1] = system: MDCK-hOCT1 cells; test: MTT drug sensitivity assay in MDCK-hOCT1 cells; assay type: cell-based, canine; settings: read-out: IC50 MDCK-hOCT1
Method: (§1) Cytotoxicity of the platinum-based compounds was measured by MTT (thiazolyl blue tetrazolium bromide) assay. Cells were seeded in 100 μl of the culture medium without any antibiotics in 96-well plates at a predetermined cell density. For HEK 293 cells, poly-D-lysine coated plates were used. […] For the OCT inhibitor studies, the inhibitors (i.e., disopyramide or cimetidine) were added to the medium at a specified concentration immediately before the addition of the platinum-based compounds. After incubation for a specified time period, the drug-containing medium was replaced with fresh, drug-free medium and the incubation was continued for a total of 72 hours (start from the addition of platinum-based compounds). Then, the MTT assay was performed similarly as described in Alley et al., Cancer Res., 48:589-601 (1988). […] The maximal cell growth was the cell growth in the medium without any platinum-based compounds; C is the concentration of the platinum-based compound, and γ is the slope factor.
(§2) Briefly, the cells were seeded in 96-well plates at a density of 5,000 cells/well for the transfected MDCK cells or 12,000 cells/well for the transfected HEK 293 cells. The platinum-based drugs were added on the following day. After the specified time periods of drug exposure, the drug-containing medium was replaced with fresh, drug-free medium, and the incubation was continued for a total of 72 hours (start from the time when the drug was added). After incubation, the cell growth was determined by an MTT assay. Data are expressed as mean±SD from 3 to 6 independent experiments with each performed in quadruplicate. The resistance factor (RF) was defined as the ratio of the mean IC50 value in the MOCK cells to that in the OCT-transfected cells.
(§3) Briefly, MDCK cells were seeded at a density of 5,000 cells/well in 96-well plates and exposed to the test compounds for 7 hours on the following day. After incubation for a total of 72 hours, the cell growth was determined by an MTT assay. The data for carboplatin was taken from Table 1 and was not determined simultaneously with the other compounds. The resistance factor (RF) was defined as the ratio of the mean IC50 value in MDCK-MOCK cells to that in MDCK-hOCT1 cells. Data are expressed as mean±SD from six measurements, and each measurement was performed in quadruplicate.

[2] = system: MDCK-MOCK cells; test: MTT drug sensitivity assay in MDCK-MOCK cells; assay type: cell-based, canine; settings: read-out: IC50 MDCK-MOCK
Method: (§4) Cytotoxicity of the platinum-based compounds was measured by MTT (thiazolyl blue tetrazolium bromide) assay. Cells were seeded in 100 μl of the culture medium without any antibiotics in 96-well plates at a predetermined cell density. For HEK 293 cells, poly-D-lysine coated plates were used. After overnight incubation, the platinum-based compounds were then added to the culture medium to give the indicated final concentrations. For the OCT inhibitor studies, the inhibitors (i.e., disopyramide or cimetidine) were added to the medium at a specified concentration immediately before the addition of the platinum-based compounds. After incubation for a specified time period, the drug-containing medium was replaced with fresh, drug-free medium and the incubation was continued for a total of 72 hours (start from the addition of platinum-based compounds). Then, the MTT assay was performed similarly as described in Alley et al., Cancer Res., 48:589-601 (1988). […] The maximal cell growth was the cell growth in the medium without any platinum-based compounds; C is the concentration of the platinum-based compound, and γ is the slope factor.
as §2, §3

[3] = system: MDCK-hOCT1 cells; test: Cellular accumulation of platinum in MDCK-hOCT1 cells (ICP-MS); assay type: in vitro ADME, canine; settings: 2-hr exposure
Method: (§5) For the inhibitor studies, the incubation medium also contained disopyramide (150 μM). […] For the inhibitor studies, the incubation medium also contained cimetidine (1.5 mM). […] After drug exposure, the cells were washed with ice-cold PBS three times and harvested by scraping and centrifugation. The cell-associated platinum was determined by ICP-MS and normalized for protein content. Data are expressed as mean±SD from a single experiment performed in triplicate. Experiments were replicated for OCT1 and OCT2, and similar results were obtained.
(§6) The cellular accumulation of platinum was determined as described in Holzer et al., Mol. Pharmacol., 66:817-823 (2004) with some modifications. Briefly, the cells were grown in 100 mm×20 mm dishes in the culture medium without any antibiotics to over 90% confluence. For HEK 293 cells, poly-D-lysine coated dishes were used. For platinum accumulation, the cells were incubated in the culture medium containing the indicated concentrations of the platinum compounds at 37° C. in 5% CO2 for 2 hr unless specified. After incubation, the dishes were immediately placed on ice and the cells were washed with 6 ml of ice-cold PBS for three times and collected with a rubber policeman. The cell pellets were obtained by centrifugation at 400×g and at 4° C. for 15 min. For the OCT inhibitor studies, the incubation medium also contained the indicated inhibitor (i.e., disopyramide or cimetidine) in addition to the platinum-based compounds. The resulting cell pellets were then dissolved into 200 μl of 70% nitric acid at 65° C. for at least 2.5 hours, and then distilled water containing 10 ppb of iridium (Sigma) and 0.1% Triton X-100 was added to the samples to dilute nitric acid to 7%. The platinum content was measured by inductively plasma coupled mass spectrometry (ICP-MS) in the Analytical Facility at the University of California at Santa Cruz (Santa Cruz, Calif.). Cell lysates from a set of identical cultures were used for BCA protein assay.

[4] = system: HEK-hOCT3 cells; test: MTT drug sensitivity assay in HEK-hOCT3 cells; assay type: cell-based, human; settings: drug exposure 7 hour
Method: as §1, §2

[5] = system: HEK-hOCT2 cells; test: Cellular accumulation of platinum in HEK-hOCT2 cells (ICP-MS); assay type: in vitro ADME, human; settings: 2-hr exposure
Method: as §5, §6

[6] = system: HEK-MOCK cells; test: MTT drug sensitivity assay in HEK-MOCK cells (control of HEK-hOCT3); assay type: cell-based, human; settings: drug exposure 7 hour; Table 3
Method: as §4, §2

[7] = system: HEK-hOCT2 cells; test: MTT drug sensitivity assay in HEK-hOCT2 cells; assay type: cell-based, human; settings: drug exposure 7 hour; read-out: IC50 HEK-hOCT2
Method: as §1, §2

[8] = system: HEK-MOCK cells; test: MTT drug sensitivity assay in HEK-MOCK cells (control of HEK-hOCT2); assay type: cell-based, human; settings: drug exposure 7 hour; Table 2; read-out: IC50 HEK-MOCK
Method: as §4, §2

[9] = system: MDCK-MOCK cells; test: Cellular accumulation of platinum in MDCK-MOCK cells (ICP-MS); assay type: in vitro ADME, canine; settings: 2-hr exposure, drug 15 μM
Method: as §5, §6

[10] = system: HEK-MOCK cells; test: Cellular accumulation of platinum in HEK-MOCK cells (ICP-MS); assay type: in vitro ADME, human; settings: cimetidine 1.5 mM
Method: as §5
The cellular accumulation of platinum was determined as described in Holzer et al., Mol. Pharmacol., 66:817-823 (2004) with some modifications. Briefly, the cells were grown in 100 mm×20 mm dishes in the culture medium without any antibiotics to over 90% confluence. For HEK 293 cells, poly-D-lysine coated dishes were used. For platinum accumulation, the cells were incubated in the culture medium containing the indicated concentrations of the platinum compounds at 37° C. in 5% CO2 for 2 hr unless specified. […] The platinum content was measured by inductively plasma coupled mass spectrometry (ICP-MS) in the Analytical Facility at the University of California at Santa Cruz (Santa Cruz, Calif.). […]

[11] = system: LS180; test: MTT drug sensitivity, colon cancer cell line LS180; assay type: cell-based, human
Method: as §1
(§7) The cell seeding density was 6,000-, 8,000-, 6,000-, 15,000-12,000- and 4,000 cells/well for HCT116, HT29, RKO, SW620, LS180, and DLD cells, respectively. When cimetidine (1.5 mM) was used, it was added to the wells immediately before the addition of the platinum-based drugs. The resistance factor (RF) was defined as the ratio of the mean IC50 value in the presence to that in the absence of cimetidine. Data are expressed as mean±SD from six measurements, and each measurement was performed in quadruplicate.

[12] = system: DLD; test: MTT drug sensitivity, colon cancer cell line DLD; assay type: cell-based, human
Method: as §1, §7

[13] = system: RKO; test: MTT drug sensitivity, colon cancer cell line RKO; assay type: cell-based, human
Method: as §1, §7

[14] = system: six colon cancer cell lines; test: MTT drug sensitivity, summary over the six colon cancer cell lines; assay type: cell-based, human
Method: as §1
The resistance factor (RF) due to the presence of cimetidine was defined as the ratio of the IC50 value in the presence of cimetidine to that in the absence of cimetidine.
as §7

[15] = system: HCT116; test: MTT drug sensitivity, colon cancer cell line HCT116; assay type: cell-based, human
Method: as §1, §7

[16] = system: HT29; test: MTT drug sensitivity, colon cancer cell line HT29; assay type: cell-based, human
Method: as §1, §7

[17] = system: SW620; test: MTT drug sensitivity, colon cancer cell line SW620; assay type: cell-based, human
Method: as §1, §7

[18] = SAR study Table 4, 7 hours of drug exposure
[19] = drug exposure 7 hour, MTT at 72 hours, Table 1
[20] = absence of cimetidine, read-out: IC50 Control
[21] = cimetidine 1.5 mM, read-out: IC50 Cimetidine-treated

NCCN.[Cl][Pt][Cl] [[Pt(Cl2)(en)]]
IC50 [1, 18]: 10.2 ± 4.76 µM
IC50 [2, 18]: 33.2 ± 11.5 µM

[Cl][Pt]1([Cl])[NH]C2CCCCC2[NH]1 [[Pt(R,R-DACH)Cl2]]
IC50 [1, 18]: 0.65 ± 0.26 µM
IC50 [2, 18]: 15 ± 3.24 µM

[Cl][Pt]1([Cl])[NH]C2CCCCC2[NH]1 [[Pt(S,S-DACH)Cl2]]
IC50 [1, 18]: 0.57 ± 0.18 µM
IC50 [2, 18]: 16.2 ± 3.72 µM

O=C1[O][Pt]2([NH]C3CCCCC3[NH]2)[O]C1=O [[Pt(S,S-DACH)oxalato]]
IC50 [1, 18]: 1.45 ± 1.16 µM
IC50 [2, 18]: 30 ± 14.2 µM

N.N.O=C([O-])C1(C(=O)[O-])CCC1.[Pt+2] [carboplatin]
cellular platinum accumulation rate in MDCK-hOCT1 ([3]; drug 15 μM): 2.77±0.36 pmol/mg protein-hr
effect of disopyramide on platinum accumulation rate in MDCK-hOCT1 ([3]; disopyramide 150 μM): not inhibited by disopyramide
IC50 [4]: 48.1 ± 23.4 µM
fold higher platinum accumulation rate, HEK-hOCT2 vs HEK-MOCK [5]: 1.38 fold
cellular platinum accumulation rate in HEK-hOCT2 ([5]; drug 10 μM): 4.17±0.18 pmol/mg protein-hr
IC50 [6]: 84.8 ± 9.71 µM
IC50 [7]: 61.6 ± 46.3 µM
IC50 [8]: 110 ± 46.3 µM
IC50 [1, 18]: 227 ± 85.8 µM
IC50 [1, 19]: 227 ± 85.8 µM
cellular platinum accumulation rate in MDCK-MOCK [9]: 2.22±0.07 pmol/mg protein-hr
effect of cimetidine on platinum accumulation / cellular uptake in HEK-MOCK [10]: little effect
IC50 [2, 18]: 258 ± 86.3 µM
IC50 [2, 19]: 258 ± 86.3 µM

N.NC1CCCCC1.[Cl][Pt][Cl] [cis-[Pt(NH3)(Cy)Cl2]]
IC50 [1, 18]: 0.16 ± 0.03 µM
IC50 [2, 18]: 1.42 ± 0.15 µM

N.N.[Cl][Pt][Cl] [cisplatin]
IC50 [4]: 2.44 ± 0.71 µM
IC50 [6]: 2.83 ± 0.9 µM
IC50 ([11]; LS180, absence of cimetidine, read-out: IC50 Control): 5.72 ± 1.75 µM
IC50 ([11]; LS180, cimetidine 1.5 mM, read-out: IC50 Cimetidine-treated): 8.27 ± 3.35 µM
IC50 [7]: 1.32 ± 0.18 µM
IC50 [12, 20]: 18.4 ± 7.58 µM
IC50 [12, 21]: 32.3 ± 10.3 µM
IC50 [13, 20]: 8.58 ± 2.38 µM
IC50 [13, 21]: 12.5 ± 4.44 µM
IC50 ([14]; absence of cimetidine, read-out: mean±SE of IC50 in the six cell lines, control): 10.5 ± 2.02 µM
IC50 ([14]; cimetidine 1.5 mM, read-out: mean±SE of IC50 in the six cell lines, in the presence of cimetidine): 19.4 ± 4.32 µM
IC50 ([15]; HCT116, absence of cimetidine, read-out: IC50 Control): 5.42 ± 1.34 µM
IC50 ([15]; HCT116, cimetidine 1.5 mM, read-out: IC50 Cimetidine-treated): 10.2 ± 3.23 µM
IC50 [8]: 2.95 ± 0.23 µM
IC50 ([16]; HT29, absence of cimetidine, read-out: IC50 Control): 12.4 ± 3.91 µM
IC50 ([16]; HT29, cimetidine 1.5 mM, read-out: IC50 Cimetidine-treated): 30.8 ± 11 µM
IC50 [1, 18]: 3.58 ± 0.3 µM
IC50 [1, 19]: 15.4 ± 2.84 µM
IC50 [2, 18]: 6.32 ± 0.74 µM
IC50 [2, 19]: 19.6 ± 7.56 µM
IC50 ([17]; SW620, absence of cimetidine, read-out: IC50 Control): 12.6 ± 1.95 µM
IC50 ([17]; SW620, cimetidine 1.5 mM, read-out: IC50 Cimetidine-treated): 22.2 ± 4.92 µM

[Pt(NH3)2(trans-1,2-(OCO)2C6H10)] [[Pt(NH3)2(trans-1,2-(OCO)2C6H10]]
IC50 [1, 18]: 10.8 ± 2.66 µM
IC50 [2, 18]: 21.4 ± 2.94 µM
